Experimental findings from patent US10457707B2, “Substituted urea depsipeptide analogs as activators of the CLPP endopeptidase” (priority 2015, dated 2019) are described below.

In brackets after ≈: the same amount, converted by molar mass. Like-named read-outs stand apart in the source and are kept apart here. *1 amine or outer side, *2 acyl side, *3 side chain or, on linkers, in order; H or OH if unused. Where a SMILES comes first, the peptide text is derived from it. Bridges are numbered along the chain shown (N, C = ends). [ ]: non-standard residue; d: D form. The star is where a group is joined. Phe(3,5-F2) = N[C@@H](Cc1cc(F)cc(F)c1)C(=O)O; Morpholine(3S-CO) = O=C(O)[C@@H]1COCCN1; Pro(4S-Me) = C[C@@H]1CN[C@H](C(=O)O)C1; NH(4-Cl-2-F-phenyl) = Fc1cc(Cl)ccc1N*; Pro(4R-Me) = C[C@H]1CN[C@H](C(=O)O)C1; NH(3,4-Me2-phenyl) = Cc1ccc(N*)cc1C; NMeaThr = CN[C@H](C(=O)O)[C@H](C)O; Hyp = O=C(O)[C@@H]1C[C@@H](O)CN1; NH(4-Et-phenyl) = CCc1ccc(N*)cc1; NMeT = CN[C@H](C(=O)O)[C@@H](C)O; Heptenoyl(2E) = CCCC/C=C/C(=O)*; NH(4-Me-phenyl) = Cc1ccc(N*)cc1; aThr = C[C@H](O)[C@H](N)C(=O)O; Pip = O=C(O)[C@@H]1CCCCN1; NMeA = CN[C@@H](C)C(=O)O; CO = O=C([*:1])[*:2] Some results are limits rather than exact numbers.

Holding throughout (format): cell-based
In assay [1] the test system is Streptococcus pyogenes, ATCC 700294. The experiment in a line: Minimal inhibitory concentration assay (microbroth dilution). Put shortly: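 CLSI broth microdilution: two-fold serial compound dilutions in appropriate broth, inoculated and incubated aerobically overnight at 37° C. MIC read visually as lowest concentration preventing bacterial growth.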
Assay [2] has as its system Staphylococcus aureus, USA 300. Nature of the assay: Minimal inhibitory concentration assay. The conditions noted are these: USA300, read-out: Minimal Inhibitory Concentrations S. aureus USA 300. Put shortly:
(§1)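 CLSI broth microdilution: two-fold compound dilutions from 200 μM final, ~10^5 cfu/mL inoculum, aerobic overnight incubation at 37 °C. MIC read visually as lowest concentration preventing growth; S. aureus USA 300 compared with its ClpP-inactivated counterpart to check ClpP dependence.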

Assay [3] concerns Staphylococcus aureus, USA 300 wherein ClpP is inactivated. The experiment in a line: Minimal inhibitory concentration assay. In short, it runs like this:
as §1

The mark [4] stands for this setting: Streptococcus pyogenes, ATCC700294; read-out: Minimal Inhibitory Concentrations S. pyogenes ATCC 700294.
Where [5] appears, read: Streptococcus pyogenes, ATCC700294, read-out: Minimal Inhibitory Concentrations S. pyogenes ATCC 700294.

Regarding `CCc1ccc(NC(=O)N[C@@H](Cc2cc(F)cc(F)c2)C(=O)N[C@@H]2C(=O)N3CCC[C@H]3C(=O)N(C)[C@@H]([C@H](C)O)C(=O)N[C@@H](C)C(=O)N3C[C@@H](C)C[C@H]3C(=O)O[C@H]2C)cc1` [Compound 204, (S)-3-(3,5-difluorophenyl)-2-(3-(4-ethylphenyl)ureido)-N-((2S,6S,9S,11aS,17S,18S,20aS)-9-((S)-1-hydroxyethyl)-2,6,10,18-tetramethyl-5,8,11,16,20-pentaoxohexadecahydro-1H,5H,16H-dipyrrolo[2,1-c:2′,1′-l][1]oxa[4,7,10,13]tetraazacyclohexadecin-17-yl)propanamide] ({NH(4-Et-phenyl)-CO}-[Phe(3,5-F2)][aThr]P[NMeaThr]A[Pro(4S-Me)]; ester 2-C), the MIC in assay [1] (setting [4]) and in assay [2] was 0.098 µM (≈ 0.0809 µg/mL) each time. In assay [3], the “Minimal Inhibitory Concentrations S. aureus USA 300 ΔClpP” value is 100 µM.
For the compound `Cc1ccc(NC(=O)N[C@@H](Cc2cc(F)cc(F)c2)C(=O)N[C@@H]2C(=O)N3CCC[C@H]3C(=O)N(C)[C@@H]([C@H](C)O)C(=O)N[C@@H](C)C(=O)N3C[C@H](C)C[C@H]3C(=O)O[C@H]2C)cc1` [Compound 208, (S)-3-(3,5-difluorophenyl)-N-((2R,6S,9S,11aS,17S,18S,20aS)-9-((S)-1-hydroxyethyl)-2,6,10,18-tetramethyl-5,8,11,16,20-pentaoxohexadecahydro-1H,5H,16H-dipyrrolo[2,1-c:2′,1′-l][1]oxa[4,7,10,13]tetraazacyclohexadecin-17-yl)-2-(3-(p-tolyl)ureido)propanamide] ({NH(4-Me-phenyl)-CO}-[Phe(3,5-F2)][aThr]P[NMeaThr]A[Pro(4R-Me)]; ester 2-C), the MIC in assay [1] (setting [5]) and in assay [2] was 0.1 µM (≈ 0.0812 µg/mL) in each case. For the same compound, the “Minimal Inhibitory Concentrations S. aureus USA 300 ΔClpP” value in assay [3] stood at 200 µM.
As for `Cc1ccc(NC(=O)N[C@@H](Cc2cc(F)cc(F)c2)C(=O)N[C@@H]2C(=O)N3CCC[C@H]3C(=O)N3CCCC[C@H]3C(=O)N[C@@H](C)C(=O)N3C[C@H](C)C[C@H]3C(=O)O[C@H]2C)cc1` [Compound 209, (S)-3-(3,5-difluorophenyl)-2-(3-(p-tolyl)ureido)-N-((2R,6S,8aS,14aS,20S,21S,23aS)-2,6,21-trimethyl-5,8,14,19,23-pentaoxooctadecahydro-1H,5H,14H,19H-pyrido[2,1-i]dipyrrolo[2,1-c:2′,1′-l][1]oxa[4,7,10,13]tetraazacyclohexadecin-20-yl)propanamide] ({NH(4-Me-phenyl)-CO}-[Phe(3,5-F2)][aThr]P[Pip]A[Pro(4R-Me)]; ester 2-C), the results for the MIC in assay [1] (setting [5]) and in assay [2] were 0.2 µM (≈ 0.162 µg/mL) and 0.05 µM (≈ 0.0404 µg/mL), respectively. In addition, the “Minimal Inhibitory Concentrations S. aureus USA 300 ΔClpP” value in assay [3] was 100 µM.
Take `Cc1ccc(NC(=O)N[C@@H](Cc2cc(F)cc(F)c2)C(=O)N[C@@H]2C(=O)N3CCC[C@H]3C(=O)N3CCOC[C@H]3C(=O)N[C@@H](C)C(=O)N3C[C@H](C)C[C@H]3C(=O)O[C@H]2C)cc1` [Compound 210, (S)-3-(3,5-difluorophenyl)-2-(3-(p-tolyl)ureido)-N-((6aS,12S,13S,15aS,17R,21S,23aS)-13,17,21-trimethyl-6,11,15,20,23-pentaoxooctadecahydro-6H,11H,15H-[1,4]oxazino[3,4-i]dipyrrolo[2,1-c:2′,1′-l][1]oxa[4,7,10,13]tetraazacyclohexadecin-12-yl)propanamide] ({NH(4-Me-phenyl)-CO}-[Phe(3,5-F2)][aThr]P[Morpholine(3S-CO)]A[Pro(4R-Me)]; ester 2-C): the MIC in assay [1] (setting [5]) was found to be 0.02 µM (≈ 0.0162 µg/mL); in assay [2] it was 0.006 µM (≈ 0.00486 µg/mL). Moreover, in assay [3], the “Minimal Inhibitory Concentrations S. aureus USA 300 ΔClpP” value is more than 200 µM.
With `CCc1ccc(NC(=O)N[C@@H](Cc2cc(F)cc(F)c2)C(=O)N[C@@H]2C(=O)N3C[C@H](O)C[C@H]3C(=O)N3CCCC[C@H]3C(=O)N[C@@H](C)C(=O)N3C[C@H](C)C[C@H]3C(=O)O[C@H]2C)cc1` [Compound 211, (S)-3-(3,5-difluorophenyl)-2-(3-(4-ethylphenyl)ureido)-N-((2R,6S,8aS,14aS,16R,20S,21S,23aS)-16-hydroxy-2,6,21-trimethyl-5,8,14,19,23-pentaoxooctadecahydro-1H,5H,14H,19H-pyrido[2,1-i]dipyrrolo[2,1-c:2′,1′-l][1]oxa[4,7,10,13]tetraazacyclohexadecin-20-yl)propanamide] ({NH(4-Et-phenyl)-CO}-[Phe(3,5-F2)][aThr][Hyp][Pip]A[Pro(4R-Me)]; ester 2-C), the MIC in assay [1] (setting [4]) was less than 0.2 µM; in assay [2], 0.04 µM (≈ 0.0335 µg/mL). Further, the “Minimal Inhibitory Concentrations S. aureus USA 300 ΔClpP” value in assay [3] is more than 200 µM.
As to `Cc1ccc(NC(=O)N[C@@H](Cc2cc(F)cc(F)c2)C(=O)N[C@@H]2C(=O)N3C[C@H](O)C[C@H]3C(=O)N3CCCC[C@H]3C(=O)N[C@@H](C)C(=O)N3C[C@H](C)C[C@H]3C(=O)O[C@H]2C)cc1C` [Compound 212, (S)-3-(3,5-difluorophenyl)-2-(3-(3,4-dimethylphenyl)ureido)-N-((2R,6S,8aS,14aS,16R,20S,21S,23aS)-16-hydroxy-2,6,21-trimethyl-5,8,14,19,23-pentaoxooctadecahydro-1H,5H,14H,19H-pyrido[2,1-i]dipyrrolo[2,1-c:2′,1′-l][1]oxa[4,7,10,13]tetraazacyclohexadecin-20-yl)propanamide] ({NH(3,4-Me2-phenyl)-CO}-[Phe(3,5-F2)][aThr][Hyp][Pip]A[Pro(4R-Me)]; ester 2-C), the MIC in assay [1] (setting [5]) is less than 0.2 µM; in assay [2] it was 0.1 µM (≈ 0.0838 µg/mL). Further, the “Minimal Inhibitory Concentrations S. aureus USA 300 ΔClpP” value in assay [3] was more than 200 µM.
On the same counts, the results for `Cc1ccc(NC(=O)N[C@@H](Cc2cc(F)cc(F)c2)C(=O)N[C@@H]2C(=O)N3C[C@H](O)C[C@H]3C(=O)N(C)[C@@H](C)C(=O)N[C@@H](C)C(=O)N3C[C@@H](C)C[C@H]3C(=O)O[C@H]2C)cc1` [Compound 214, (S)-3-(3,5-difluorophenyl)-N-((2S,6S,9S,11aS,13R,17S,18S,20aS)-13-hydroxy-2,6,9,10,18-pentamethyl-5,8,11,16,20-pentaoxohexadecahydro-1H,5H,16H-dipyrrolo[2,1-c:2′,1′-l][1]oxa[4,7,10,13]tetraazacyclohexadecin-17-yl)-2-(3-(p-tolyl)ureido)propanamide] ({NH(4-Me-phenyl)-CO}-[Phe(3,5-F2)][aThr][Hyp][NMeA]A[Pro(4S-Me)]; ester 2-C) are 0.781 µM (≈ 0.623 µg/mL), 1.56 µM (≈ 1.24 µg/mL) and more than 200 µM.
In the case of `C[C@@H]1C[C@H]2C(=O)O[C@@H](C)[C@H](NC(=O)[C@H](Cc3cc(F)cc(F)c3)NC(=O)Nc3ccc(Cl)cc3F)C(=O)N3CCC[C@H]3C(=O)N3CCCC[C@H]3C(=O)N[C@@H](C)C(=O)N2C1` [Compound 307, (S)-2-(3-(4-chloro-2-fluorophenyl)ureido)-3-(3,5-difluorophenyl)-N-((2R,6S,8aS,14aS,20S,21S,23aS)-2,6,21-trimethyl-5,8,14,19,23-pentaoxooctadecahydro-1H,5H,14H,19H-pyrido[2,1-i]dipyrrolo[2,1-c:2′,1′-l][1]oxa[4,7,10,13]tetraazacyclo-hexadecin-20-yl)propanamide] ({NH(4-Cl-2-F-phenyl)-CO}-[Phe(3,5-F2)][aThr]P[Pip]A[Pro(4R-Me)]; ester 2-C), the MIC in assay [1] (setting [4]) is 0.156 µM (≈ 0.132 µg/mL); in assay [2], less than 0.02 µM. Moreover, the “Minimal Inhibitory Concentrations S. aureus USA 300 ΔClpP” value in assay [3] was more than 20 µM.
Regarding `CCCC/C=C/C(=O)N[C@@H](Cc1cc(F)cc(F)c1)C(=O)N[C@@H]1C(=O)N2CCC[C@H]2C(=O)N(C)[C@@H]([C@@H](C)O)C(=O)N[C@@H](C)C(=O)N2C[C@H](C)C[C@H]2C(=O)O[C@H]1C` [Compound 308, (E)-N—((S)-3-(3,5-difluorophenyl)-1-(((2R,6S,9S,11aS,17S,18S,20aS)-9-((R)-1-hydroxyethyl)-2,6,10,18-tetramethyl-5,8,11,16,20-pentaoxohexadecahydro-1H,5H,16H-dipyrrolo[2,1-c:2′,1′-l][1]oxa[4,7,10,13]tetraazacyclohexadecin-17-yl)amino)-1-oxopropan-2-yl)hept-2-enamide] ({Heptenoyl(2E)}-[Phe(3,5-F2)][aThr]P[NMeT]A[Pro(4R-Me)]; ester 2-C), the MIC is less than 0.02 µM in assay [1] (setting [4]) and 0.039 µM (≈ 0.0308 µg/mL) in assay [2]. Besides, the “Minimal Inhibitory Concentrations S. aureus USA 300 ΔClpP” value in assay [3] was more than 20 µM.
Take `CCCC/C=C/C(=O)N[C@@H](Cc1cc(F)cc(F)c1)C(=O)N[C@@H]1C(=O)N2C[C@H](O)C[C@H]2C(=O)N2CCOC[C@H]2C(=O)N[C@@H](C)C(=O)N2C[C@H](C)C[C@H]2C(=O)O[C@H]1C` [Compound 309, (E)-N—((S)-3-(3,5-difluorophenyl)-1-(((6aS,8R,12S,13S,15aS,17R,21S,23aS)-8-hydroxy-13,17,21-trimethyl-6,11,15,20,23-pentaoxooctadecahydro-6H,11H,15H-[1,4]oxazino[3,4-i]dipyrrolo[2,1-c:2′,1′-l][1]oxa[4,7,10,13]tetraazacyclohexadecin-12-yl)amino)-1-oxopropan-2-yl)hept-2-enamide] ({Heptenoyl(2E)}-[Phe(3,5-F2)][aThr][Hyp][Morpholine(3S-CO)]A[Pro(4R-Me)]; ester 2-C): the figures for the MIC in assay [1] (setting [4]) and in assay [2] were less than 0.02 µM and 0.625 µM (≈ 0.502 µg/mL), respectively. The “Minimal Inhibitory Concentrations S. aureus USA 300 ΔClpP” value in assay [3] is more than 20 µM.
